According to patent US9624280B2 (JANSSEN BIOTECH, INC., priority 2013, dated 2017):
No end group written: not given here.

What was measured:
human Nav1.7 = target: T1, human Nav1.7 (Homo sapiens, UniProt Q15858, W1161R); format: cell-based
T1 construct: expressed in transfected cells

human Nav1.6 = target: T2, human Nav1.6 (Homo sapiens, UniProt Q9UQD0); format: cell-based
T2 construct: expressed in transfected cells

C57Bl/6 mice = test: CFA model of inflammatory pain, thermal hyperalgesia (Hargreaves test); format: in vivo; conditions: for Thermal MPE %: CFA model, mice, mean±s.e.m. (n)
Procedure: Male C57Bl/6 mice (24-26 g), ordered from Charles River and housed individually, were used for this study.
This box consists of a chamber with a raised glass floor maintained at a constant temperature (27° C.). The thermal nociceptive stimulus originates from a projection bulb light beam below the glass surface. The light beam is aimed at the area between toris (center plantar). The “start” button will turn on the light and start the timer. Movements (such as a sudden withdrawal) of the stimulated paw will trigger the switch to turn off the light and stop the timer. […] If no movement occurs, the bulb will be turned off after 20 seconds (cutoff) to prevent tissue injury. The animals were allowed to habituate on the glass surface for 30-60 minutes before PWL measurement.
Percent maximum possible effect (MPE %)=(T1−T0)/(Tc−T0)×100%. T0: threshold on day0 (post-CFA, pre-pump); T1: threshold on day1 post pump implantation; Tc: cut-off of the test (20 s for the Hargreaves test and 2 g for the Von Frey test)
Animals were anesthetized with isoflurane (4% induction and 2% maintenance) and 20 μL of 100% Complete Freund's Adjuvant (CFA; Sigma-Aldrich; Saint Louis, Mo.) was injected into the center plantar area on one hind paw using a 27 gauge needle attached to a 50 μL Hamilton syringe. Carrageenan model: Animals were anesthetized with isoflurane (4% induction and 2% maintenance) and 25 μL of 2% A-carrageenan (Sigma-Aldrich; Saint Louis, Mo.) dissolved in normal saline was injected into the center plantar area on hind paws using an insulin syringe (BD; Franklin Lakes, N.J.).
Alzet micro-osmotic mini pumps (Durect Corporation Model 1003D and 2001D) were filled and primed per manufacturer's guide. Mice were anesthetized with isoflurane (5% induction; 2% maintenance). Their backs were shaved, wiped down with isopropyl alcohol and povidone iodine, and a small incision was made between the scapulae. Using a pair of forceps or hemostat, a small pocket was formed by spreading the subcutaneous connective tissues apart. The pump was inserted into the pocket with the flow moderator pointing away from the incision. The skin incision was then closed using 7 mm staples and the animals were allowed to recover in their home cages.
Data are represented as mean±s.e.m. Prism (Graphpad Software Inc., La Jolla, Calif.) was used for graphing and statistical analysis. For comparison of threshold values over time, a two-way ANOVA followed by Bonferroni's multiple comparison test was used with a significance level of p<0.05. Hotplate and MPE % data were analyzed by one-way ANOVA followed by Bonferroni's multiple comparison test.

[1] = 1824 μg/day/mouse by subcutaneous osmotic mini-pump
[2] = 684 and 1824 μg/day, subcutaneous osmotic mini-pump
[3] = 228 μg/day/mouse by subcutaneous osmotic mini-pump

T2 sequence (Q9UQD0 whole entry): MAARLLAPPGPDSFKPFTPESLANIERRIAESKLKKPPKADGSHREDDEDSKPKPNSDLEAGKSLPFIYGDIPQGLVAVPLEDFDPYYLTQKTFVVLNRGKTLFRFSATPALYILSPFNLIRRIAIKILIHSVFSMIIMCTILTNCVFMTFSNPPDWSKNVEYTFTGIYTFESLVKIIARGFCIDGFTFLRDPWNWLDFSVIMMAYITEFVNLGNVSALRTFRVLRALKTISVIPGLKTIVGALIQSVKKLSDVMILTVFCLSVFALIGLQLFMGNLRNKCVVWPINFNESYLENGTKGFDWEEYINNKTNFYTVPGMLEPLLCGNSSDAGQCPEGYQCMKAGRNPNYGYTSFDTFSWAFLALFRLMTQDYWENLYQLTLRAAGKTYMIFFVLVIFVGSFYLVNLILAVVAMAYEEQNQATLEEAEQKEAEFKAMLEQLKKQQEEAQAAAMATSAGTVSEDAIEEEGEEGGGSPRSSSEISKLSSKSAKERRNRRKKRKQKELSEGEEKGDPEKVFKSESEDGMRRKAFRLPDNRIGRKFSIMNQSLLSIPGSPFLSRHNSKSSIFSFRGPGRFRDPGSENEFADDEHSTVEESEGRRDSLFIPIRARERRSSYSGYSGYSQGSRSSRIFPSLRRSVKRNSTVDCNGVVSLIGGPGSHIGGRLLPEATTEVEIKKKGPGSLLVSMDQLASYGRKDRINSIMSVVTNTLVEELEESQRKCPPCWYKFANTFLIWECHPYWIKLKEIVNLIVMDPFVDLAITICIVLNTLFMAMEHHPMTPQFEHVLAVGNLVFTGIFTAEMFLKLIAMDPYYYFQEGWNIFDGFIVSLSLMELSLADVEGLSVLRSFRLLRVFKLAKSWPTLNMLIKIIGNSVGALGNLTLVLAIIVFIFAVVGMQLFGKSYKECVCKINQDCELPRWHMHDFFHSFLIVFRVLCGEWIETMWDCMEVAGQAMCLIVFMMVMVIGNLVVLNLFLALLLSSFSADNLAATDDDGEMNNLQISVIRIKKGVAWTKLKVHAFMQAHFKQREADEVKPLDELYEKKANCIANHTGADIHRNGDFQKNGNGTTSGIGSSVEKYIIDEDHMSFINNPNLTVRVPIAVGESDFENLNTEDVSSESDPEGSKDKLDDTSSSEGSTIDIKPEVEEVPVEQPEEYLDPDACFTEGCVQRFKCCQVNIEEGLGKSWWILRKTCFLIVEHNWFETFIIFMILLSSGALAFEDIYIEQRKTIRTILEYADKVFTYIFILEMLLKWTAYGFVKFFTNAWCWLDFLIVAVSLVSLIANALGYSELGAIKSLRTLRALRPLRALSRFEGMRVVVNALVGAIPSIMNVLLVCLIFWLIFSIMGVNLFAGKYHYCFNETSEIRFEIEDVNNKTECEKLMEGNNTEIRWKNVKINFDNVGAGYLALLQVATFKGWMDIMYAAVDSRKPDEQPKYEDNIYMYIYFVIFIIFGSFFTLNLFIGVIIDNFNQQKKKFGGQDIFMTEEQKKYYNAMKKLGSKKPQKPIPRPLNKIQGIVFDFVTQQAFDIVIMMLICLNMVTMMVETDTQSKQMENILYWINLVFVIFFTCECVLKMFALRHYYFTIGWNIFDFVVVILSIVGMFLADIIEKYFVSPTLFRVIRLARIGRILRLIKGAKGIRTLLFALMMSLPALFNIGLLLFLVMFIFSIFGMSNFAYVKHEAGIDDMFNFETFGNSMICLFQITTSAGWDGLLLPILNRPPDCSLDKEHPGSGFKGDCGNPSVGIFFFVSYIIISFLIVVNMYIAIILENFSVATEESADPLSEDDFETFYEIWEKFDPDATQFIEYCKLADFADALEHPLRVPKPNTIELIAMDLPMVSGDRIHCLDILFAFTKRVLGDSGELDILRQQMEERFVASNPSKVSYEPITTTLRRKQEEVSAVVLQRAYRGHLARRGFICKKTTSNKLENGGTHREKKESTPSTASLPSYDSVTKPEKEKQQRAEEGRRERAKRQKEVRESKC

Substance | IC50 (human Nav1.7) [nM] | selectivity for Nav1.7 compared to recombinant Protoxin-II (human Nav1.6) | also measured
GPCRTIGPSVCAPAPAPAPAPAPAPAPAPAPQCQKWMQTCDRERKCCEGFVCTLWCRKKLW [NV1D3832] | 88.4 | – | –
GPQCQKWMQTCDRERKCCEGFVCTLWCRKKLW-NH-methyl [NV1D3034-NH-methyl] | – | improved selectivity | Thermal MPE % (C57Bl/6 mice; [1]): 49 ± 17 (6) %; reversal of CFA-induced thermal hyperalgesia (C57Bl/6 mice; dose not given): readily reversed
GPQCQKWMQTCDRNRKCCEGFVCTLWCRKKLW-OH (cysteine pairing not given here) [NV1D3044] | – | improved selectivity | –
GPQCQKWMQTCDARRKCCEGFVCRLWCKKKLW-OH (cysteine pairing not given here) [NV1D3006] | – | improved selectivity | –
GPYCQKWMQTCDANRKCCEGFSCRLWCKKKLW-NH2 [NV1D3586-NH2] | – | improved selectivity | –
GPCCNCSSKWCRDHSRCCGRGSGGGGSAPAPAPAPAPAPAPAPAPAPGGGGSGSQCQKWMQTCDRERKCCEGFVCTLWCRKKLW [NV1D3830] | 88.6 | – | –
GPSHSNTQTLAKAPEHTGAPAPAPAPAPAPAPAPAPAPQCQKWMQTCDRERKCCEGFVCTLWCRKKLW [NV1D3774] | 88.6 | – | –
GPACQKWMQTCDANRKCCEGFSCRLWCKKKLW-OH (cysteine pairing not given here) [NV1D3587] | – | improved selectivity | –
GPCCNCSSKWCRDHSRCCGRGSAPAPAPAPAPGSQCQKWMQTCDAERKCCEGFVCRLWCKKKLW [NV1D3256] | 55.7 | – | –
GPQCQKWMQTCDRERKCCEGFVCTLWCRKKLWGGGGSAPAPAPAPAPAPAPAPAPAPAPAPAPAPAPGGGGSGWCGDPGATCGKLRLYCCSGFCDAYTKTCKDKSSA [NV1D3825] | 194 | – | –
GPQCQKWMQTCDRERKCCEGFVCTLWCRKKLWGSAPAPAPAPAPAPAPAPAPAPGSCCNCSSKWCRDHSRCC [NV1D3797] | 91.1 | – | –
GPQCQKWMQTCDRERKCCEGFVCTLWCRKKLWGSAPAPAPAPAPGSCCNCSSKWCRDHSRCCGR [NV1D3800] | 60.9 | – | –
GPRCQKWMQTCDAERKCCEGFVCRLWCKKKLW-OH (cysteine pairing not given here) [NV1D2772] | – | improved selectivity | –
GPQCQKWMQTCDRERKCCEGFVCTLWCRKKLWGSGGGGSAPAPAPAPAPAPAPAPAPAPGGGGSGSCCNCSSKWCRDHSRCCGR [NV1D3828] | 87.5 | – | –
GPCCNCSSKWCRDHSRCCGSAPAPAPAPAPGSQCQKWMQTCDRERKCCEGFVCTLWCRKKLW [NV1D3796] | 110 | – | –
GPACQKWMQTCDRNRKCCEGFVCTLWCRKKLW-OH (cysteine pairing not given here) [NV1D3541] | – | improved selectivity | –
GPCCNCSSKWCRDHSRCCGSAPAPAPAPAPAPAPAPAPAPGSQCQKWMQTCDRERKCCEGFVCTLWCRKKLW [NV1D3795] | 100 | – | –
GPGWCGDPGATCGKLRLYCCSGFCDSYTKTCKDKSSAGGGGSAPAPAPAPAPAPAPAPAPAPAPAPAPAPAPGGGGSQCQKWMQTCDRERKCCEGFVCTLWCRKKLW [NV1D3822] | 74.2 | – | –
GPQCQKWMQTCDRERKCCEGFVCTLWCRKKLW-OH (cysteine pairing not given here) [NV1D3034] | – | – | reversal of CFA-induced thermal hyperalgesia (C57Bl/6 mice; [2]): completely reversed; Thermal MPE % (C57Bl/6 mice; [3]): 22 ± 6 (6) %; Thermal MPE % (C57Bl/6 mice; [1]): 50 ± 6 (8) %
GPQCQKWMQTCDAERKCCEGFVCRLWCKKKLWGSAPAPAPAPAPAPAPAPAPAPGSCCNCSSKWCRDHSRCCGR [NV1D3259] | 54.9 | – | –

Substance | IC50 (human Nav1.7) [nM] | selectivity for Nav1.7 compared to recombinant Protoxin-II (human Nav1.6) | also measured
GPQCQKWMQTCDRERKCCQGFVCTLWCRKKLW-OH (cysteine pairing not given here) [NV1D3388] | – | improved selectivity | –
GPCCNCSSKWCRDHSRCCGRGSAPAPAPAPAPAPAPAPAPAPGSQCQKWMQTCDRERKCCEGFVCTLWCRKKLW [NV1D3793] | 64.6 | – | –
GPCCNCSSKWCRDHSRCCGRGSAPAPAPAPAPAPAPAPAPAPGSQCQKWMQTCDAERKCCEGFVCRLWCKKKLW [NV1D3260] | 57.6 | – | –
GPQCQKWMQTCDRTRKCCEGFVCTLWCRKKLW-OH (cysteine pairing not given here) [NV1D3368] | – | improved selectivity | reversal of CFA-induced thermal hyperalgesia (C57Bl/6 mice; [2]): fully reversed; Thermal MPE % (C57Bl/6 mice; [3]): 23 ± 8 (7) %; Thermal MPE % (C57Bl/6 mice; [1]): 47 ± 6 (8) %
GPQCQKWMQTCDRERKCCEGFVCTLWCRKKLW-NH-butyl [NV1D3034-NH-butyl] | – | improved selectivity | –
GPQCQKWMQTCDAERKCCEGFVCRLWCKKKLW-NH2 [NV1D2775-NH2] | – | improved selectivity | –
GPQCQKWMQTCDRERKCCEGFVCTLWCRKKLWGSAPAPAPAPAPGSCCNCSSKWCRDHSRCC [NV1D3799] | 50.6 | – | –
GPQCQKWMQSCDRERKCCEGFVCTLWCRKKLW-OH (cysteine pairing not given here) [NV1D3359] | – | improved selectivity | –
GPCCNCSSKWCRDHSRCCGSAPAPAPAPAPAPAPAPAPAPGSQCQKWMQTCDAERKCCEGFVCRLWCKKKLW [NV1D3262] | 89.2 | – | –
GPYCQKWMQTCDANRKCCEGFSCRLWCKKKLW-OH (cysteine pairing not given here) [NV1D3586] | – | improved selectivity | –
GPQCQKWMQTCDRTRKCCEGFVCTLWCRKKLW-NH2 [NV1D3368-NH2] | – | improved selectivity | Thermal MPE % (C57Bl/6 mice; [3]): 27 ± 4 (4) %; Thermal MPE % (C57Bl/6 mice; [1]): 55 ± 15 (6) %; reversal of CFA-induced thermal hyperalgesia (C57Bl/6 mice; dose not given): readily reversed
GPQCQKWMQTCDRERKCCEGFVCTLWCRKKLWGSGGGGSAPAPAPAPAPAPAPAPAPAPGGGGSGSCCNCSSKWCRDHSRCC [NV1D3829] | 122 | – | –
GPQCQKWMQTCDRERKCCEGFVCTLWCRKKLW-NH2 [NV1D3034-NH2] | – | improved selectivity | –
GPGWCGDPGATCGKLRLYCCSGFCDAYTKTCKDKSSAGGGGSAPAPAPAPAPAPAPAPAPAPAPAPAPAPAPGGGGSQCQKWMQTCDRERKCCEGFVCTLWCRKKLW [NV1D3824] | 110 | – | –
GPQCQKWMQTCDRERKCCEGFVCTLWCRKKLWGSAPAPAPAPAPAPAPAPAPAPGSCCNCSSKWCRDHSRCCGR [NV1D3798] | 94.5 | – | –
Ac-QCQKWMQTCDRERKCCEGFVCTLWCRKKLW-NH2 [(-GP) N-Ac-NV1D3034-NH2] | – | improved selectivity | –
GPQCQKWMQTCDAERKCCEGFSCTLWCKKKLW-OH (cysteine pairing not given here) [NV1D2974] | – | improved selectivity | –
GPQCQKWMQTCDAERKCCEGFSCTLWCKKKLW-NH2 [NV1D2974-NH2] | – | improved selectivity | –
Ac-QCQKWMQTCDAERKCCEGFSCTLWCKKKLW-NH2 [(-GP) N-Ac-NV1D2974-NH2] | – | improved selectivity | –
